Reference: US11998602B2, “Methods for promoting myelination and for treating demyelinating diseases” (The Scripps Research Institute, priority 2018, dated 2024)

Key:
[1] = system: Rat primary optic nerve OPCs; assay: In vitro OPC differentiation assay, MBP expression by Western blot; type: cell-based; conditions: for Effect of supplementation on drug-induced OPC differentiation: added to drug-induced differentiation conditions; for Observed maximal in vitro efficacy of OPC differentiation compared to T3: drug alone
Procedure: Rat primary optic nerve OPCs were isolated by panning (>99% A2B5^+) and cultured in poly-D-lysine (10 μg/ml)-coated TC dishes in OPC culture media (Neurobasal Media, Invitrogen) supplemented with B27-without vitamin A (Invitrogen), 1× non-essential amino acids, 1× Glutamax, 1× anti-anti, β-mercaptoethanol and PDGF-AA (50 ng/ml; Peprotech) at 37° C. with 5% CO2. The culture medium was replaced every 48 h and cells were collected before the confluency reached 60% to maintain a naive state. For differentiation, OPCs were plated at 1 million cells in one 10 cm petri-dish filled with differentiation media, which is identical to the culture media, but with PDGF-AA at 2 ng/ml. T3 and DMSO were used as the positive control and negative control, respectively. Five replicates of cells were collected at different times (0, 3, and 6 days) for metabolomics studies.
Western blot analysis. OPCs were plated in basal differentiation medium at 1.7×10^5 cells/well and treated for 6 days with benztropine (0.5 μM), miconazole (2 μM) with and without the tested endogenous metabolites, T3 (1 μM) or DMSO. After washing with PBS, cells were collected in ice cold RIPA buffer containing protease and phosphatase inhibitors. Following incubation on ice for >20 min and sonication, lysed cells were centrifuged (16,000 g, 15 min at 4° C.). Total protein was quantified using a BCA analysis and 25 μg of protein from each sample was denatured by boiling with Bolt LDS Sample Buffer (4×) and Sample Reducing Agent (10×). Proteins were electrophoresed using Bolt 4-12% Bis-Tris gels (Life Technologies) and transferred to a PVDF membrane (Bio-Rad). The membrane was blocked with Odyssey PBS Blocking Buffer (LI-COR) and incubated overnight at 4° C. with anti-MBP (mouse, 1:2000) and anti-actin (mouse, 1:5000). Blots were incubated with […] secondary donkey anti-mouse antibody (LI-COR, 1:7500) and imaged using Odyssey CLx and Image Studio (LI-COR).

[2] = system: Rat primary optic nerve OPCs; assay: High content imaging assay of OPC differentiation (MBP, A2B5, DAPI cell counts); type: cell-based
Procedure: Rat primary optic nerve OPCs were isolated by panning (>99% A2B5^+) and cultured in poly-D-lysine (10 μg/ml)-coated TC dishes in OPC culture media (Neurobasal Media, Invitrogen) supplemented with B27-without vitamin A (Invitrogen), 1× non-essential amino acids, 1× Glutamax, 1× anti-anti, β-mercaptoethanol and PDGF-AA (50 ng/ml; Peprotech) at 37° C. with 5% CO2. The culture medium was replaced every 48 h and cells were collected before the confluency reached 60% to maintain a naive state. For differentiation, OPCs were plated at 1 million cells in one 10 cm petri-dish filled with differentiation media, which is identical to the culture media, but with PDGF-AA at 2 ng/ml. T3 and DMSO were used as the positive control and negative control, respectively. Five replicates of cells were collected at different times (0, 3, and 6 days) for metabolomics studies. High content imaging. For dose-response co-treatment experiments, black, clear-bottom 384-well plates (Greiner) were coated with poly-D-lysine (10 μg ml^−1 in PBS). miconazole and benztropine were added at 8 doses in differentiation media; 3-fold dilutions down from 10 μM. taurine was then added at 8 concentrations; 3-fold dilutions down from 20 mM. This 384-well format was also utilized for experiments combining benztropine (0.5 μM), miconazole (2 μM) or T3 (1 μM) with propargylglycine (0.1, 3, 10, 30 μM), reduced glutathione (1, 10, 30, 100 μM) or ascorbic acid ([…]). OPCs were then seeded at a density of 1,000 cells per well, and the plates were incubated at 37° C. with 5% CO2 for 6 days. For time course experiments, cells were seeded at a density of 5,000 cells per well in poly-D-lysine-coated 96-well plates. Cells were treated with DMSO (0.1%), benztropine (0.5 μM), miconazole (2 μM) or T3 (1 μM) on day 0, and taurine (20 mM) was added in combination at 0, 1 or 3 days post-drug treatment. The plates were incubated at 37° C. with 5% CO2 for 6 days. On day 6, cells were then fixed for 20 min with 4% formaldehyde solution and stained with mouse anti-Myelin Basic Protein (MBP) antibody (MAB382, Millipore) or anti-A2B5 antibody (MAB312, Millipore) in 3% BSA, 0.3% Triton X-100 with overnight incubation at 4° C. The cells were washed and incubated with secondary antibody (goat anti-mouse Alexa Fluor488) and DAPI (Invitrogen) for 1 h at room temperature. The cells were washed and plates were sealed and imaged using an Opera confocal imaging reader (Perkin Elmer) or a Cellomics Cell Insight imaging reader (Thermo). An air ×10 lens was used to capture 9 images per well at both wavelengths (488 and 365 nm), with each image representing a different unique locations field in a single well. For image analysis, DAPI-stained nuclei and MBP-positive or A2B5-positive cell bodies were detected using an algorithm that selects for positive cell bodies and nuclei within a range of fluorescent emission values and sizes as determined by fitting parameters to positive (T3, 1 μM) and negative controls (DMSO, 0.1%). The numbers of DAPI-positive objects were enumerated in experiments where cell counts were required. Numerical results from the analyzed images were later exported for analysis using Excel (Microsoft) and/or Genedata software.

[3] = system: primary mouse cortical neurons co-cultured with OPCs; assay: In vitro OL maturation assay, MBP-colocalization with co-cultured axons; type: cell-based, rat; conditions: 0.5 μM benztropine, 1.0 μM miconazole or 2 mM taurine alone, 14 days
Procedure: In vitro OL maturation assay. Cortical and hippocampal tissue was dissected from C57BL/6 mice at embryonic day 14 and dissociated in 0.5% Trypsin with 100 U/mL DNase I diluted in HBSS (+/+) for 10 min at 37° C. Reaction was stopped by supplementing to a final concentration of 10% v/v FBS, 100 μg/mL Soybean Trypsin Inhibitor and 10 U/mL DNase I. Cells were resuspended in plating media consisting of equal volumes of FCS, HBSS (+/+), High-Glucose DMEM with L-glutamine, and F-12 with L-glutamine, then plated onto acid pre-washed German glass coverslips coated with 50 μg/mL Poly-D-Lysine and 20 μg/mL Laminin at a density of 50,000 cells/cm^2. Cells were allowed to attach for 2 hrs and then coverslips were rinsed with PBS before being transferred to a 24-well plate containing 0.5 mL growth media consisting of: Neurobasal medium, B27 supplement (Gibco), 0.5× Glutamax (Thermo), 5 μg/mL gentamycin and 5 μM glutamic acid. Half of the cell media was replaced after 3 DIV with supplemental growth media not containing glutamic acid^47. After 5 DIV, rat-derived cortical OPCs were added to the neuronal culture at a density of 5,000 cells/cm^2. Co-culture media used to resuspend and plate OPCs consisting of a 1:3 mixture of neuronal growth supplement (as above) and oligodendrocyte differentiation media, containing DMEM/F-12 (with L-glutamine), insulin-free N2 supplement, 1× Glutamax, 1×MEM non-essential amino acids, 1× β-mercaptoethanol, 2 ng/mL PDGF and 5 μg/mL gentamycin. All drugs and taurine co-treatment were added once to culture upon plating of OPCs at the following concentrations: 0.5 μM benztropine, 1.0 μM miconazole, each with or without 2 mM taurine. Cultures were maintained by replacing half of the media every three days, maintaining an equivalent concentration of taurine throughout in appropriate wells. […] Co-localization was quantified within regions of interest delineated as the periphery of individual oligodendrocytes. The co-localization index (adapted from a previously described method^48) was calculated as total proportion of co-localized 3D surface area between Tuj1 (neuron) and oligodendrocyte (MBP) over total Tuj1 (neuronal process) area enclosed within each oligodendrocyte process tree as the selected region of interest (ROI, see FIG. 3B″). Mean colocalization values for each condition were normalized to the DMSO condition mean analyzed statistically using Prism software (GraphPad, v7) for two-way ANOVA comparisons (Drug Treatment×Taurine Supplement) with Tukey post-tests for statistical significance. […]

OPCs = assay: Mitochondrial respiration assay (oxygen consumption rate, XFe96 Seahorse); type: cell-based, rat; conditions: miconazole treatment alone
Procedure: Mitochondrial respiration assay. Cellular oxygen consumption rate (OCR) was measured using an XFe96 extracellular flux analyzer (Seahorse Biosciences). OPCs were seeded at 40,000 cells/well in PLP-coated XFe96 plates and cultured for 6 days with taurine (2 and 20 mM) alone, or together with miconazole and benztropine. Cells were then incubated in assay medium (DMEM with 20 mM glucose, 5 mM pyruvate and 5 mM sodium bicarbonate, pH˜7.4) for at least 30 min prior to the assay. Media to deliver a final assay well concentration corresponding to of 1 μM oligomycin, 2 μM carbonyl cyanide 4-(trifluoromethoxy) phenylhydrazone (FCCP) and 2 μM rotenone+2 μM antimycin A were pre-loaded into the compound delivery ports of the system. The assay starts with the recording of the basal OCR, followed by recording of the OCR in response to different compounds that constitute the Mitochondria Stress Test (Seahorse Biosciences, Agilent). Once the basal OCR was measured, the compounds were added sequentially and the effects on OCR measured 3 times every 5 min. Oligomycin blocks ATP synthase; FCCP dissipates the inner membrane potential enabling maximum electron flux through the electron transport chain (ETC); rotenone+antimycin A inhibit complexes I and III, respectively, thereby blocking the entry of electrons in the ETC and shutting down mitochondrial activity.

## CN(CC(=O)O)C(=N)NP(=O)(O)O [PCr, phosphocreatine]
[1]
  Effect of supplementation on drug-induced OPC differentiation: some additive effects

## C#CCC(N)C(=O)O (stereo not shown) [PPG, propargylglycine]
[2]; PPG
  Impact on differentiation efficiency under basal vehicle treated conditions: virtually no impact
[2]; PPG 10 μM added at day 0 or day 3, all drug-induced conditions
  Observed efficacy of drug-induced differentiation: significantly enhance
[2]; PPG 10 μM, T3 1 μM
  Overall cell number with T3 treatment: enhance
[2]; PPG, DMSO, benztropine (0.5 μM) or miconazole (2 μM)
  Impact on overall survival in OPC cultures: not found to impact

## CN1[C@@H]2CC[C@H]1C[C@@H](OC(c1ccccc1)c1ccccc1)C2 [benztropine, reference compound]
[1]
  Observed maximal in vitro efficacy of OPC differentiation compared to T3: suboptimal
[3]
  MBP-colocalization with axons, treatment alone vs. DMSO (Tukey post hoc): significant

## CN(CC(=O)O)C(=N)N [creatine]
[1]
  Effect of supplementation on drug-induced OPC differentiation: some additive effects

## Clc1ccc(COC(Cn2ccnc2)c2ccc(Cl)cc2Cl)c(Cl)c1 (stereo not shown) [miconazole, reference compound]
[1]
  Observed maximal in vitro efficacy of OPC differentiation compared to T3: suboptimal
OPCs
  Impact on OCR values compared to DMSO or benztropine treatment: negative impact
[3]
  MBP-colocalization with axons, treatment alone vs. DMSO (Tukey post hoc): no significant difference

## reduced glutathione
[2]; 10 μM GSH, DMSO, day 6
  Differentiation efficiency (MBP-positive OLs) under basal conditions: no significant effect
[2]; 10 μM GSH, T3 (1 μM), day 6
  Observed total nuclei count in T3-induced differentiation: significantly enhance
  Overall efficiency of T3-induced differentiation: significantly enhance
[2]; reduced glutathione
  Impact on total cell number in benztropine- or miconazole-induced differentiation: not found to be significant
[2]; reduced glutathione, lesser extent than following taurine addition
  Overall efficiency of benztropine- or miconazole-induced differentiation: enhance
